Experimental findings from ChEMBL document CHEMBL5370527, “Hit-to-lead optimization of a pyrazinylpiperazine series against Leishmania infantum and Leishmania braziliensis” (Eur J Med Chem, 2023) are described below.

Data set [1] in a line: Selectivity index, ratio of CC50 for cytotoxicity against human THP-1 cells assessed as reduction in cell viability to IC50 for antileishmanial activity against […] stage of Leishmania braziliensis MHOM/BR/75/M2904 infected in human THP-1 cells assessed as parasite growth inhibition. The class given is toxicity, cell-based. The note with it: read-out: Ratio CC50/IC50.

The nature of data set [2]: Selectivity index, ratio of CC50 for cytotoxicity against human THP-1 cells assessed as reduction in cell viability to IC50 for antileishmanial activity against […] stage of Leishmania infantum MHOM/BR/1974/PP75 infected in human THP-1 cells assessed as parasite growth inhibition. The class given is toxicity, cell-based. The note with it: read-out: Ratio CC50/IC50.

Another data set has as its system Leishmania infantum. Kind of data set: Antileishmanial activity against […] stage of Leishmania infantum MHOM/BR/1974/PP75 infected in human THP-1 cells assessed as parasite growth inhibition incubated for 72 hrs by microplate reader analysis. The class given is functional, organism-based. To be noted: MHOM/BR/1974/PP75, THP-1, 72 h.
The test system of another data set is Leishmania braziliensis. Kind of data set: Antileishmanial activity against […] stage of Leishmania braziliensis MHOM/BR/75/M2904 infected in human THP-1 cells assessed as parasite growth inhibition incubated for 72 hrs by microplate reader analysis. The class given is functional, organism-based. To be noted: MHOM/BR/75/M2904, THP-1, 72 h.
A short description of data set [3]: Cytotoxicity against human THP-1 cells assessed as reduction in cell viability incubated for 72 hrs by alamarblue staining based analysis. The data set is classed as toxicity.
The subject of a further data set is Trypanosoma cruzi. Kind of data set: Antitrypanosomal activity against Trypanosoma cruzi Tulahuen infected in mouse L929 cells assessed as parasite growth inhibition incubated for 96 hrs. The data set is classed as functional, organism-based. To be noted: L929, 96 h.
A short description of data set [4]: Cytotoxicity against human HepG2 cells assessed as reduction in cell viability incubated for 4 days by celltiter-glo assay. The note with it: time 4 day. The data set is classed as toxicity, cell-based. For orientation: ATP-based viability assays read luminescence as a measure of living cells.
Data set [5] has as its system Leishmania donovani. Nature of the data set: Antileishmanial activity against amastigote form of Leishmania donovani infected in HepG2 cells assessed as inhibition of parasite growth incubated for 72 hrs by Alamar blue staining based assay. The class given is functional, organism-based. To be noted: HepG2, 72 h.
The subject of data set [6] is Leishmania donovani. Kind of data set: Inhibition of Leishmania donovani at 10 uM GSK-3 by kinase glo assay relative to control.

A value given as a limit tells only on which side of the number the result lay.

In general, IC50 refers to the point on the concentration scale where inhibition reaches its midpoint. What is called CC50 is the concentration giving 50% cytotoxicity. `COc1cc(F)ccc1C(=O)N1CCN(c2cnccn2)CC1`: the selectivity ratio in data set [1] was 104; in data set [2], 40. Further, the results for the IC50 in the data set with Leishmania infantum, in the data set on Leishmania braziliensis and in the data set with Trypanosoma cruzi were 34.3 µM, 13.1 µM and greater than 175 µM, respectively. Moreover, the 50% cytotoxic concentration (CC50) at 72 h in data set [3] worked out at 1360 µM.
Regarding `O=C(c1cccc(C(F)(F)F)n1)N1CCN(c2cnccn2)CC1`, the selectivity ratio in [1] was found to be 0.5; in data set [2] it was 0.2. Besides, the IC50 in the data set with Leishmania infantum was 7430 µM; in the data set on Leishmania braziliensis, 3540 µM; in the data set with Trypanosoma cruzi, greater than 175 µM. In addition, the cytotoxic concentration (CC50) at 72 h in [3] stood at 1700 µM.
Take `COc1ccc(Cl)cc1C(=O)N1CCN(c2cnccn2)CC1`: in data set [1], the selectivity ratio came out at 130. Moreover, the 50% inhibitory concentration (IC50) was 27.5 µM in the data set with Leishmania infantum, 7.8 µM with Leishmania braziliensis and greater than 175 µM with Trypanosoma cruzi. Besides, in data set [3], the 50% cytotoxic concentration (CC50) at 72 h was 1010 µM.
Regarding `O=C(c1ccc([N+](=O)[O-])cc1)N1CCN(c2cnccn2)CC1`, the figures for the selectivity ratio in data set [1] and in data set [2] were 17 and 13, respectively. The IC50 is 221 µM with Leishmania infantum, 161 µM with Leishmania braziliensis and greater than 175 µM in the data set with Trypanosoma cruzi. In addition, in data set [3], the CC50 at 72 h was 2810 µM.
For the compound `O=C(c1ccc(-n2cnnn2)cc1)N1CCN(c2cnccn2)CC1`, the selectivity ratio stood at 293 in [1] and 449 in data set [2]. Moreover, the figures for the IC50 with Leishmania infantum, with Leishmania braziliensis and in the data set with Trypanosoma cruzi were 5.8 µM, 8.9 µM and greater than 175 µM, respectively. Further, the half-maximal cytotoxic concentration (CC50) at 72 h in data set [3] turned out to be 2610 µM.
As usually defined, the inhibition is how much of the control response was suppressed. As to `O=C(c1ccc(O)c(Cl)c1)N1CCN(c2cnccn2)CC1`, the CC50 at 96 h in data set [4] is greater than 100 µM. The half-inhibitory concentration (IC50) in the data set with Leishmania donovani [5] was 0.31 µM; with Leishmania infantum, 11.9 µM; in the data set with Leishmania braziliensis, 11.7 µM; in the data set with Trypanosoma cruzi it was greater than 175 µM. The selectivity ratio in data set [1] and in data set [2] was 46 each time. The inhibition in the data set with Leishmania donovani [6] was 1.65%. The CC50 at 72 h in [3] turned out to be 542 µM.
Regarding `O=C(c1ccccc1O)N1CCN(c2cnccn2)CC1`, the selectivity ratio in data set [1] was 31; in data set [2] it was 45. Besides, the IC50 was 58.8 µM in the data set on Leishmania infantum, 85.2 µM in the data set with Leishmania braziliensis and greater than 175 µM with Trypanosoma cruzi. In addition, the CC50 at 72 h in data set [3] turned out to be 2620 µM.
As to `O=C(c1ccc(OC(F)(F)F)cc1)N1CCN(c2cnccn2)CC1`, the figures for the selectivity ratio in data set [1] and in [2] were 49 and 115, respectively. The IC50 in the data set with Leishmania infantum is 7.5 µM; with Leishmania braziliensis it was 17.5 µM; in the data set on Trypanosoma cruzi it was greater than 175 µM. The half-maximal cytotoxic concentration (CC50) at 72 h in data set [3] amounted to 865 µM.
Consider `O=C(c1ccc(C(F)(F)F)cc1)N1CCN(c2cnccn2)CC1`, for which the values for the selectivity ratio in [1] and in data set [2] were 8 and 5, respectively. The results for the IC50 in the data set on Leishmania infantum, in the data set on Leishmania braziliensis and in the data set with Trypanosoma cruzi were 84.5 µM, 55.7 µM and greater than 175 µM, respectively. The CC50 at 72 h in data set [3] was 421 µM.
With `O=C(c1ccc(C(F)(F)F)nc1)N1CCN(c2cnccn2)CC1`, the selectivity ratio is 327 in data set [1] and 298 in [2]. Moreover, the IC50 is 35.2 µM in the data set on Leishmania infantum, 32.1 µM with Leishmania braziliensis and greater than 175 µM with Trypanosoma cruzi. For the same compound, in data set [3], the 50% cytotoxic concentration (CC50) at 72 h came out at 10500 µM.
`O=C(c1ccc(O)cc1)N1CCN(c2cnccn2)CC1`: the selectivity ratio in data set [1] was found to be 141; in [2] it was 346. Besides, the IC50 in the data set with Leishmania infantum was 3.1 µM; in the data set with Leishmania braziliensis, 7.6 µM; in the data set on Trypanosoma cruzi, greater than 175 µM. The CC50 at 72 h in [3] is 1070 µM.
Regarding `O=C(c1cccc(O)c1)N1CCN(c2cnccn2)CC1`, the selectivity ratio in [1] amounted to 156; in [2] it was 87. Moreover, the IC50 in the data set with Leishmania infantum is 25.3 µM; in the data set on Leishmania braziliensis, 14.1 µM; in the data set with Trypanosoma cruzi, greater than 175 µM. Moreover, the CC50 at 72 h in [3] worked out at 2200 µM.
As for `O=C(c1cccc(Cl)c1)N1CCN(c2cnccn2)CC1`, the selectivity ratio was determined as 7 in data set [1] and 6 in [2]. Also, the concentration for half-maximal inhibition (IC50) in the data set on Leishmania infantum was 113 µM; in the data set on Leishmania braziliensis, 93.4 µM; in the data set with Trypanosoma cruzi it was greater than 175 µM. For the same compound, in [3], the cytotoxic concentration (CC50) at 72 h was 662 µM.
As for `COc1ccc(C(=O)N2CCN(c3cnccn3)CC2)cc1`, the selectivity ratio worked out at 188 in [1] and 422 in data set [2]. In addition, the concentration for half-maximal inhibition (IC50) is 4.5 µM in the data set with Leishmania infantum, 10.1 µM in the data set with Leishmania braziliensis and greater than 175 µM in the data set on Trypanosoma cruzi. Also, the 50% cytotoxic concentration (CC50) at 72 h in [3] was 1900 µM.
For the compound `O=C(c1ccccc1)N1CCN(c2cnccn2)CC1`, the selectivity ratio in [1] amounted to 29; in [2] it was 11. Also, the IC50 is 63.1 µM with Leishmania infantum, 24.7 µM in the data set on Leishmania braziliensis and greater than 175 µM in the data set on Trypanosoma cruzi. Besides, the CC50 at 72 h in data set [3] came to 716 µM.
